Data from PubChem BioAssay AID2060905 (Molecular Pharmacology Branch, DTP, NCI, 2025).

Tested on: 282377-053-R-J1-PDC complex spheroid viability
Experiment: Anticancer human tumor 282377-053-R-J1-PDC patient-derived colon adenocarcinoma cell line growth inhibition [RAS]
Conditions: for IC50: curve of first compound; for viability, T/C: stronger effect = lower value
Excerpt: RAS pathway inhibitors in Combinations in Complex Spheroids
A high-throughput screen of multi-cell type tumor spheroids was designed to identify active combinations of RAS pathway inhibitors and targeted small molecules. Complex spheroids include a stromal component modeled by human endothelial cells (HUVEC) and fibroblasts modeled by human mesenchymal stem cells (MSCs). The concentration ranges selected for each drug and investigational agent were based upon clinically achievable concentrations if the clinical Cmax of the agent was known.
Compounds. The drugs and investigational agents: abemaciclib (NSC768073), cobimetinib (NSC768068), divarasib (GDC6063, NSC841802), docetaxel (NSC628503), GDC-1971 (RLY-1971, NSC841576), gemcitabine (NSC613327), inavolisib (NSC800729), ipatasertib (NSC767898), KB-0742 (NSC834161), MRTX-1133 (NSC836407), osimertinib (NSC779217), RMC-4630 (NSC839698), RMC-6236 (NSC851965), RMC-6291 (NSC852671), Ro-3306 (NSC812927), sapanisertib (NSC764658), SN-38 (NSC673596), staurosporine (NSC755774), SY5609 (NSC837396), and tovorafenib (DAY101, NSC766906), were obtained from the National Cancer Institute (NCI) Developmental Therapeutics Program Chemical Repository. The FDA-approved anticancer drug set is available from the NCI Developmental Therapeutics Program. […] The stock solutions were prepared in dimethyl sulfoxide (DMSO, Sigma-Aldrich, St. Louis, MO, cat. D2650) at 800-fold the tested concentration and stored at -70 degrees C prior to their use. All drugs and investigational agents were tested over a range starting from a high concentration at or near the clinical Cmax and decreasing in half-log increments. If the clinical Cmax for an agent had not been determined, the highest concentration tested was 10 microM.
Cell Culture. All cells were maintained in an incubator at 37 degrees C and 5% CO2 with 95% humidity. The PDC lines were cultured according to standard operating procedures established by the NCI PDMR. All PDCs were thawed and cultured in Matrigel-coated flasks prepared with a working solution of 1X Ham's F-12 nutrient mix, without supplementation (Invitrogen, Waltham, MA, cat. 11765054), 100 U/mL penicillin-streptomycin (Invitrogen, cat. 15140122), and 2.5% Matrigel (Corning Inc., Corning, NY, cat. 354248) for the first three passages. The 362531-283-R-J2-PDC and 782815-120-R-J1-PDC lines were cultured in 6C/Colon 1B media, which includes advanced DMEM/F-12 (Thermo Fisher Scientific, cat. 12634028), 10 mM HEPES (Thermo Fisher Scientific, cat. 15630080), 1X GlutaMAX supplement (Thermo Fisher Scientific, cat. 35050061), 0.1 mg/mL primocin (InvivoGen, San Diego, CA, cat. ant-pm-2), 10% defined fetal bovine serum, heat inactivated (HyClone Laboratories Inc., Logan, UT, cat. SH30070.03HI), 50% L-WRN conditioned media (ATCC, cat. CRL-3276), 1.25 mM N-Acetyl-L-cysteine (Sigma-Aldrich, cat. A9165), 10 mM nicotinamide (Sigma-Aldrich, cat. N0636), 1X B-27 supplement (Thermo Fisher Scientific, cat. 17504044), 1X N-2 supplement (Thermo Fisher Scientific, cat. 17502048), 50 ng/mL human EGF (Thermo Fisher Scientific, cat. PHG0311), and 10 microM Y-27632 dihydrochloride (Tocris Bioscience, cat. 1254). The K12877-001-R-J1-PDC line was cultured in 6I media, which includes all 6C/Colon 1B media plus 10 ng/mL human FGF-10 (PeproTech, cat. 100-26), 1 ng/mL human FGF-2 (PeproTech, cat. 100-18B), 1 µM prostaglandin E2 (Tocris Bioscience, cat. 2296), […] hydrocortisone (Sigma-Aldrich, cat. H4001), and […] bovine insulin (Sigma-Aldrich, cat. I6634). The K86415-001-R-J1-PDC line was cultured in 6D media, which includes all 6C/Colon 1B media components minus the L-WRN conditioned media. The 485176-168-R4-J1-PDC was cultured in PANC media, which includes all 6C/Colon 1B media plus 100 ng/mL human FGF-10 (PeproTech, cat. 100-26), 500 nM SB-431542 (Selleckchem, cat. S1067), and 10 nM gastrin (Tocris Bioscience, cat. 3006). […]
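Note: spheroids exposed to agents for seven days before readout.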
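Throughout, for viability, T/C: luminescence viability as percent of DMSO vehicle control wells.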

C=CC(=O)Nc1cc(Nc2nccc(-c3cn(C)c4ccccc34)n2)c(OC)cc1N(C)CCN(C)C + C#Cc1c(F)ccc2cc(O)cc(-c3ncc4c(N5CC6CCC(C5)N6)nc(OCC56CCCN5CC(F)C6)nc4c3F)c12
IC50 (second compound 0.0316 µM): > 1000 nM | IC50 (second compound 0.1 µM): > 1000 nM | IC50 (second compound 0.316 µM): > 1000 nM | IC50 (second compound 1 µM): > 1000 nM | IC50 (second compound 3.16 µM): > 1000 nM | IC50 (second compound 10 µM): > 1000 nM | viability, T/C (second compound 0.0316 µM, first compound 0.00316 µM): 104% | viability, T/C (second compound 0.0316 µM, first compound 0.01 µM): 91.5% | viability, T/C (second compound 0.0316 µM, first compound 0.0316 µM): 98.2% | viability, T/C (second compound 0.0316 µM, first compound 0.1 µM): 104% | viability, T/C (second compound 0.0316 µM, first compound 0.316 µM): 95.6% | viability, T/C (second compound 0.0316 µM, first compound 1 µM): 110% | viability, T/C (second compound 0.1 µM, first compound 0.00316 µM): 96.6% | viability, T/C (second compound 0.1 µM, first compound 0.01 µM): 90.4% | viability, T/C (second compound 0.1 µM, first compound 0.0316 µM): 99.9% | viability, T/C (second compound 0.1 µM, first compound 0.1 µM): 91.9% | viability, T/C (second compound 0.1 µM, first compound 0.316 µM): 93.5% | viability, T/C (second compound 0.1 µM, first compound 1 µM): 97.4% | viability, T/C (second compound 0.316 µM, first compound 0.00316 µM): 88.1% | viability, T/C (second compound 0.316 µM, first compound 0.01 µM): 85.3% | viability, T/C (second compound 0.316 µM, first compound 0.0316 µM): 84.9% | viability, T/C (second compound 0.316 µM, first compound 0.1 µM): 86.1% | viability, T/C (second compound 0.316 µM, first compound 0.316 µM): 91.7% | viability, T/C (second compound 0.316 µM, first compound 1 µM): 85.9% | viability, T/C (second compound 1 µM, first compound 0.00316 µM): 98.5% | viability, T/C (second compound 1 µM, first compound 0.01 µM): 100% | viability, T/C (second compound 1 µM, first compound 0.0316 µM): 93% | viability, T/C (second compound 1 µM, first compound 0.1 µM): 108% | viability, T/C (second compound 1 µM, first compound 0.316 µM): 82.8% | viability, T/C (second compound 1 µM, first compound 1 µM): 95.9% | viability, T/C (second compound 3.16 µM, first compound 0.00316 µM): 88.2% | viability, T/C (second compound 3.16 µM, first compound 0.01 µM): 87.8% | viability, T/C (second compound 3.16 µM, first compound 0.0316 µM): 114% | viability, T/C (second compound 3.16 µM, first compound 0.1 µM): 92.3% | viability, T/C (second compound 3.16 µM, first compound 0.316 µM): 108% | viability, T/C (second compound 3.16 µM, first compound 1 µM): 101% | viability, T/C (second compound 10 µM, first compound 0.00316 µM): 103% | viability, T/C (second compound 10 µM, first compound 0.01 µM): 94.9% | viability, T/C (second compound 10 µM, first compound 0.0316 µM): 108% | viability, T/C (second compound 10 µM, first compound 0.1 µM): 73% | viability, T/C (second compound 10 µM, first compound 0.316 µM): 80.1% | viability, T/C (second compound 10 µM, first compound 1 µM): 99.2%
